Drawing on US11780845B2 (Relay Therapeutics, Inc., priority 2019, dated 2023), this text covers IC50 for 34 compounds.

What is called IC50 is the concentration at which inhibition is half-maximal. A higher IC50 goes with lower potency.

In one experiment the target is FGFR2 (Homo sapiens (Human), UniProt P21802). The experiment is described as follows: Biochemical FGFR2 Caliper assay.
A further experiment relates to SNU-16. The experiment is described as follows: Cell SNU-16 assay. The class given is cell-based.
Setting [1] is: Homo sapiens, SNU-16, SNU-16 cells.

FGFR2, sequence (P21802 22-821): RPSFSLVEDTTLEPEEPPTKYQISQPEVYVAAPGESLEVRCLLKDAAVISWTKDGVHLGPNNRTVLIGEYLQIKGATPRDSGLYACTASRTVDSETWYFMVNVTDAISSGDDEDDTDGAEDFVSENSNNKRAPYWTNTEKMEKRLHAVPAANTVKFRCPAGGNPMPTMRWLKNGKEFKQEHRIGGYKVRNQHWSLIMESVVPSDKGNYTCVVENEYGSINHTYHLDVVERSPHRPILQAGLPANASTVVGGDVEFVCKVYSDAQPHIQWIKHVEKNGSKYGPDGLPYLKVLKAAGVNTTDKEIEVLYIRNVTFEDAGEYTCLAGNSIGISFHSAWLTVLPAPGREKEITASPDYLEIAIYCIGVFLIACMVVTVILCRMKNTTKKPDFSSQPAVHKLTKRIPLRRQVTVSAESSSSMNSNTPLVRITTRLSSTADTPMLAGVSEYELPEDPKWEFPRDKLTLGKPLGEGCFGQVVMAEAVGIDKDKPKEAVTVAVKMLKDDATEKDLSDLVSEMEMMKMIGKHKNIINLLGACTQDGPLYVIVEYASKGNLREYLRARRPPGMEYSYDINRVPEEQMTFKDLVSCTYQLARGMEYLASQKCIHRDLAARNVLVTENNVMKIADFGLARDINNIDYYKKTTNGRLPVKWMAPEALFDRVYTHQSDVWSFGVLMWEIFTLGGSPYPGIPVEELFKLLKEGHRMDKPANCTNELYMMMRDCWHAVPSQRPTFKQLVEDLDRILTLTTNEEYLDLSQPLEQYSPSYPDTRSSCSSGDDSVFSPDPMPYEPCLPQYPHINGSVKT

As to `C#Cc1ccc(-c2c(C3=CC[C@@H](C(=O)N4CCC[C@@H]4C#C)CC3)c3c(N)ncnc3n2C)c(C)n1` (single isomer, unassigned) [Example 1229], the values for the IC50 against FGFR2 and in the experiment on SNU-16 (setting [1]) were under 0.1 µM and at most 0.1 µM, respectively.

Regarding `C=Cc1ncc(-c2ccc(-c3c(-c4ccc(Oc5nccc(C)n5)cc4)c4c(N)ncnc4n3C)cc2)s1` [Example 984], the IC50 against FGFR2 is under 0.1 µM; with SNU-16 (setting [1]), at most 0.1 µM.

Turning to `C=C(C)C(=O)Nc1ccc(-c2c(-c3ccc(C(=O)NCC4(F)CCC4)c(OC)c3)c3c(N)ncnc3n2C)cc1` [Example 946], the IC50 against FGFR2 is 0.25 to 1 µM; in the experiment with SNU-16 (setting [1]), 1 to 100 µM.

Regarding `C=C(C)C(=O)Nc1ccc(-c2c(C3=CC[C@@H](C(=O)N4CCCC4)OC3)c3c(N)ncnc3n2C)cc1` [Example 1015], the IC50 on FGFR2 and in the experiment with SNU-16 (setting [1]) was 1 to 100 µM in each case.

For `C=C(C)C(=O)Nc1ccc(-c2c(-c3ccc(-c4ccccc4O)nc3)c3c(N)ncnc3n2C)cc1` [Example 1371], the IC50 at FGFR2 fell in the range of 1 to 100 µM; with SNU-16 (setting [1]), 0.25 to 1 µM.

In the case of `C=C(C)C(=O)Nc1ccc(-c2c(C3=CC[C@H](C(=O)N4CCCC4)CC3)c3c(N)ncnc3n2C)c(C)c1` (single isomer, unassigned) [Example 1034], the figures for the concentration for half-maximal inhibition (IC50) on FGFR2 and with SNU-16 (setting [1]) were 0.1 to 0.25 µM and at most 0.1 µM, respectively.

Consider `C#C[C@H]1CCCN1C(=O)[C@H]1CC=C(c2c(-c3ccc(NC(=O)C(=C)C)cc3)n(C)c3ncnc(N)c23)CC1` (single isomer, unassigned) [Example 950], for which the IC50 against FGFR2 and in the experiment on SNU-16 (setting [1]) was 1 to 100 µM throughout.

For the compound `C=C(C)C(=O)Nc1ccc(-c2c(C3=CC[C@H](C(=O)N4CCC[C@@H]4C)CC3)c3c(N)ncnc3n2C)cc1` [Example 991], the values for the IC50 against FGFR2 and in the experiment on SNU-16 (setting [1]) were under 0.1 µM and at most 0.1 µM, respectively.

For `C=C(C)C(=O)Nc1ccc(-c2c(C3=CC[C@@H](C(=O)N4CC[C@H]5C[C@H]54)CC3)c3c(N)ncnc3n2C)cc1` (single isomer, unassigned) [Example 1039], the IC50 on FGFR2 and in the experiment on SNU-16 (setting [1]) was 1 to 100 µM in each case.

With `C=CC(=O)N1CC=C(c2c(-c3ccc(Oc4cccc(C)n4)cc3)c3c(N)ncnc3n2C)[C@H]1C` (single isomer, unassigned) [Example 932], the IC50 against FGFR2 was 0.1 to 0.25 µM; in the experiment on SNU-16 (setting [1]), 0.25 to 1 µM.

For `C=C(C)C(=O)Nc1ccc(-c2c(-c3ccc(Oc4nccc(C)n4)c(F)c3)c3c(C)ncnc3n2C)c(Cl)c1` [Example 1093], the IC50 against FGFR2 is under 0.1 µM; in the experiment on SNU-16 (setting [1]), at most 0.1 µM.

Regarding `C=C(C)C(=O)Nc1ccc(-c2c(-c3cnn(-c4ccc(F)cc4)c3)c3c(N)ncnc3n2C)cc1` [Example 1285], the IC50 against FGFR2 lay within 0.25 to 1 µM; in the experiment on SNU-16 (setting [1]), 1 to 100 µM.

On to `C=CS(=O)(=O)N1CC[C@H](c2c(-c3ccc(C(=O)N4CCCC4)cc3)c3c(N)ncnc3n2C)C1` (single isomer, unassigned) [Example 863], for which the half-inhibitory concentration (IC50) on FGFR2 was 0.25 to 1 µM; with SNU-16 (setting [1]) it was 0.1 to 0.25 µM.

On to `C=CC(=O)Nc1ccc(-c2c(-c3ccc(C(=O)NCC(C)C)cc3)c3c(N)ncnc3n2C)cc1` [Example 990], for which the IC50 is under 0.1 µM against FGFR2 and at most 0.1 µM with SNU-16 (setting [1]).

`C=CC(=O)Nc1ccc(-c2c(-c3ccc(Oc4cccc(C)n4)cc3)c3c(N)ncnn3c2CO)cc1` [Example 835]: the IC50 against FGFR2 and in the experiment on SNU-16 (setting [1]) was 1 to 100 µM each time.

`C=C(C)C(=O)Nc1ccc(-c2c(-c3ccn4ncnc4c3)c3c(N)ncnc3n2C)cc1` [Example 1350]: the IC50 against FGFR2 and in the experiment with SNU-16 (setting [1]) was 1 to 100 µM each time.

In the case of `C=C(C)C(=O)Nc1ccc(-c2c(C3=CC[C@@H](S(=O)(=O)N4CCCC4)CC3)c3c(N)ncnc3n2C)cc1` [Example 993], the IC50 is under 0.1 µM at FGFR2 and at most 0.1 µM in the experiment with SNU-16 (setting [1]).

With `C#Cc1ncc(-c2c(-c3ccc(C(=O)N4CCC[C@@H]4C#C)cc3)c3c(N)ncnc3n2C)c(C)c1F` (single isomer, unassigned) [Example 1332], the IC50 against FGFR2 is under 0.1 µM; with SNU-16 (setting [1]), at most 0.1 µM.

In the case of `C=CC(=O)N1C2COCC1C(c1c(-c3ccc(Oc4cccc(C)n4)cc3)c3c(N)ncnc3n1C)C2` (centres unmarked) [Example 812], the IC50 is under 0.1 µM against FGFR2 and at most 0.1 µM in the experiment with SNU-16 (setting [1]).

As for `C#Cc1cnc2c(cc(-c3c(-c4ccc(Oc5nccc(C)n5)c(F)c4)c4c(N)ncnc4n3C)n2C)n1` [Example 1413], the results for the IC50 at FGFR2 and with SNU-16 (setting [1]) were under 0.1 µM and at most 0.1 µM, respectively.

`Cn1c(-c2ccc(NC(=O)CC#N)cc2)c(-c2ccc(C(=O)N3CCCC3)cc2)c2c(N)ncnc21` [Example 881]: the IC50 on FGFR2 and in the experiment on SNU-16 (setting [1]) was 1 to 100 µM each time.

As to `C#Cc1cc(C)c(-c2c(C3=CC[C@H](C(=O)N4CCCC4=O)CC3)c3c(N)ncnc3n2C)cn1` (single isomer, unassigned) [Example 1240], the IC50 on FGFR2 and in the experiment with SNU-16 (setting [1]) was 0.1 to 0.25 µM each time.

For the compound `C=C(C)C(=O)Nc1ccc(-c2cn3ncnc(N)c3c2-c2ccc(S(=O)(=O)N3CCCC3)cc2)cc1` [Example 826], the IC50 against FGFR2 and in the experiment with SNU-16 (setting [1]) was 0.25 to 1 µM each time.

In the case of `C=CC(=O)N[C@H]1Cc2ccc(-c3c(-c4ccc(Oc5nccc(C)n5)cc4)c4c(N)ncnc4n3C)cc2C1` (single isomer, unassigned) [Example 928], the IC50 against FGFR2 and with SNU-16 (setting [1]) was 0.25 to 1 µM throughout.

For `C=C(C)C(=O)Nc1ccc(-c2c(-c3ccc4c(C(=O)NCC5CC5)n[nH]c4c3)c3c(N)ncnc3n2C)cc1` [Example 1324], the IC50 against FGFR2 and in the experiment on SNU-16 (setting [1]) was 1 to 100 µM in each case.

As for `C=C(C)C(=O)Nc1ccc(-c2c(-c3ccc(Oc4nccc(C)n4)cc3)c3c(N)ncnc3n2C)c(C)c1Cl` [Example 1071], the IC50 on FGFR2 is 0.25 to 1 µM; with SNU-16 (setting [1]), at most 0.1 µM.

On to `Cc1ccnc(Oc2ccc(-c3c([C@H]4CCN(C(=O)CCl)C4)n(C)c4ncnc(N)c34)cc2)n1` (single isomer, unassigned) [Example 876], for which the IC50 against FGFR2 was under 0.1 µM; in the experiment with SNU-16 (setting [1]) it was at most 0.1 µM.

In the case of `C=C(C)C(=O)Nc1ccc(-c2c(C3=CCC(C#N)CC3)c3c(N)ncnc3n2C)cc1` (centres unmarked) [Example 1287], the IC50 on FGFR2 and in the experiment with SNU-16 (setting [1]) was 1 to 100 µM throughout.

With `CN(C)C/C=C/C(=O)Nc1ccc(-c2c(C3=CC[C@@H](C(=O)N4CCCC4)CC3)c3c(N)ncnc3n2C)cc1` (single isomer, unassigned) [Example 1036], the values for the IC50 at FGFR2 and with SNU-16 (setting [1]) were 0.25 to 1 µM and at most 0.1 µM, respectively.

In the case of `C#Cc1ccc(-c2c(C3=CC[C@@H](C(=O)N4CCC[C@H]4C#N)CC3)c3c(N)ncnc3n2C)c(C)n1` (single isomer, unassigned) [Example 1235], the results for the IC50 at FGFR2 and in the experiment on SNU-16 (setting [1]) were under 0.1 µM and at most 0.1 µM, respectively.

In the case of `C=C(C)C(=O)Nc1ccc(-c2cn3ncnc(N)c3c2-c2ccc(C(=O)NC3CCC3)cc2)cc1` [Example 830], the IC50 on FGFR2 was under 0.1 µM; with SNU-16 (setting [1]), at most 0.1 µM.

On to `C=C(C)C(=O)Nc1ccc(-c2c(-c3ccc(Oc4cccc(C)n4)c(F)c3)c3c(N)ncnc3n2C)c(C)n1` [Example 1103], for which the values for the IC50 against FGFR2 and with SNU-16 (setting [1]) were under 0.1 µM and at most 0.1 µM, respectively.

Take `C#Cc1cc(F)c(-c2c(-c3ccc(Oc4nccc(C)n4)c(F)c3)c3c(C)ncnc3n2C)cn1` [Example 1375]: the IC50 was under 0.1 µM at FGFR2 and at most 0.1 µM in the experiment with SNU-16 (setting [1]).

For `CC1=CCN(c2ccc(-c3c(-c4ccc(Oc5nccc(C)n5)cc4)c4c(N)ncnc4n3C)cc2)C1=O` [Example 1061], the IC50 was under 0.1 µM against FGFR2 and at most 0.1 µM in the experiment with SNU-16 (SNU-16 cells).
